# Results taken from US20110054014A1, “PRENYLFLAVANONE COMPOUNDS AND USES THEREOF” (NatureWise Biotech & Medicals Corporation, priority 2008, published 2011).
# Where two headings read alike, the source gives them in different places.
# Tested on: Human breast cancer MCF-7 and MDA-MB-231 cells
# Experiment: Cytotoxicity assay (trypan blue exclusion)
# Settings: for IC50: read-out: IC50 values
# Protocol: Human breast cancer MCF-7 and MDA-MB-231 cells were purchased from the Food Industry Research and Development Institute (Hsinchu, Taiwan). The cells were cultured in Dulbecco's modified Eagle's medium (Gibco) containing 10% fetal bovine serum (FBS), a 1% dilution of penicillin-streptomycin, and 2 mM glutamine. Cells were maintained at 37° C. in a humidified atmosphere of 95% air and 5% CO2. However, MDA-MB-231 cells were cultured in L-15 medium (Gibco) containing 10% fetal bovine serum (FBS), a 1% dilution of penicillin-streptomycin, and 2 mM glutamine. Cells were maintained at 37° C. in a humidified atmosphere of 100% air and 0% CO2.
# The cells (1.5×10^6 per dish) were cultured in a 100-mm dish and incubated for 14 h prior to treatment with DMSO or with different concentrations of propolins (2.5, 5.0, 10, and 20.0 μg/mL) for 48 h. The propolins were small compounds with their MWs ranging from 408-492 Da. These values were converted to their respective molarities.
# The cells were counted and their viability was determined by trypan blue exclusion assay. The activity was shown as IC50 value (the concentration required to induce 50% cytotoxicity), and the average value was obtained from triplicate data points.
SMILES,"IC50 (concentration required to induce 50% cytotoxicity, 48 h treatment, human breast cancer cells, cell line not given, one representative of three independent experiments) [µM]","IC50 (Homo sapiens, 48 h) [µM]",cytotoxic activity against human breast cancer cells (conclusion in words from Table 2)
"CC(C)=CCC/C(C)=C/Cc1cc([C@@H]2CC(=O)c3c(O)cc(O)cc3O2)cc(O)c1O [Propolin F, reference compound]",47.2,,
"CC(C)=CCC/C(C)=C/CC/C(C)=C/Cc1c(O)cc2c(c1O)C(=O)C[C@@H](c1ccc(O)c(O)c1)O2 [Propolin I, 5,7,3′,4′-tetrahydroxy-6-farnesylflavanone]",,10.2,cytotoxic activity
"CC(C)=CCC/C(C)=C/Cc1c(O)cc2c(c1O)C(=O)C[C@@H](c1ccc(O)cc1)O2 [Propolin J, 5,7,4′-trihydroxy-6-geranylflavanone]",,36.8,
